The values that follow come from patent US20150368297A1, “Novel Peptide Compound for Inhibiting Restenosis and Promoting Re-Endothelialization and Method for Preparing the Same” (Chonnam National University Hospital, priority 2014, published 2015).

This assay relates to vascular smooth muscle cell (SMC). Kind of assay: Effect on proliferation of vascular smooth muscle cell (SMC), XTT assay. Type of assay: cell-based. Particulars: 1 uM compound; measured at 1, 4 and 7 days; versus non-treated control; FIG. 1. How it is done: As cells used in a cell culture, the vascular smooth muscle cell (SMC) which is a smooth muscle cell, and the human umbilical vein endothelial cell (HUVEC) which is the cell for promoting vascular re-endothelialization were purchased from Korea Cell Line Bank, respectively. The cell culture was performed by culturing the vascular smooth muscle cell (SMC) and the human umbilical vein endothelial cell (HUVEC) in Dulbecoco's modified eagle medium (DMEM) with 10% fetal bovine serum (FBS) under conditions of 37° C. and 5% CO2. […]
5×10^4 of SMC cells cultured according to Example 2 were cultured in the 24-well cell culture plate and then treated with 1 uM of the peptide compound prepared by Example 2 (hereinafter, referred to as ‘EVR-P’). […] After the reaction, 200 ul of the culture medium was transferred from each well to a 96 well cell culture dish, and degree of color change was measured from absorbance at a 450 nm wavelength by a spectroscopy.
5×10^4 of SMC cells cultured according to Example 2 were cultured in the 24-well cell culture plate and then treated with 1 uM of the known Everolimus (EVR)(LC Laboratories). […] After the reaction, 200 ul of the culture medium was transferred from each well to the 96 well cell culture dish, and degree of color change was measured from absorbance at a 450 nm wavelength by a spectroscopy.

Structures are written as SMILES.

For the compound `CO[C@H]1C[C@@H]2CC[C@@H](C)[C@@](O)(O2)C(=O)C(=O)N2CCCC[C@H]2C(=O)O[C@H]([C@H](C)C[C@@H]2CC[C@@H](OCCO)[C@H](OC)C2)CC(=O)[C@H](C)/C=C(\C)[C@@H](O)[C@@H](OC)C(=O)[C@H](C)C[C@H](C)/C=C/C=C/C=C/1C` [EVR, Everolimus], the “SMC cell proliferation (XTT, absorbance at 450 nm)” value is “cell proliferation was inhibited”.
